Test results: ChEMBL document CHEMBL1201862, “PubChem BioAssay data set” (2004)
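48-hour exposure; five concentrations; linearly interpolated endpoints. GI50 = concentration required for 50% inhibition of growth.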 Activity calls are given as the source filed them. Rule as the data show it: active = GI50 up to about 1.1 µM and inactive = higher.

Assays:
Experiment in all cases: growth of human tumour cells (NCI), 48 h
UO-31 = test system: UO-31
MCF7 = test system: MCF7
CCRF-CEM = test system: CCRF-CEM
DLD-1 = test system: DLD-1
DMS-273 = test system: DMS-273
SNB-78 = test system: SNB-78
Malme-3M = test system: Malme-3M
NCI-H23 = test system: NCI-H23
HOP-18 = test system: HOP-18
KM12 = test system: KM12
A549 = test system: A549
SW-620 = test system: SW-620
NCI-H226 = test system: NCI-H226
DMS-114 = test system: DMS-114
HT-29 = test system: HT-29
Hs-578T = test system: Hs-578T
MDA-N = test system: MDA-N
MDA-MB-435 = test system: MDA-MB-435
DU-145 = test system: DU-145
786-0 = test system: 786-0

O=NN1C(c2ccccc2)CCCC1c1ccccc1 (stereo not given)
GI50 (UO-31): 42.4 µM (inactive) | GI50 (MCF7): 37.9 µM (inactive) | GI50 (CCRF-CEM): 52.1 µM (inactive) | GI50 (DLD-1): > 90.6 µM (inactive) | GI50 (DMS-273): 39.8 µM (inactive) | GI50 (SNB-78): 46.2 µM (inactive) | GI50 (Malme-3M): > 65.5 µM (inactive) | GI50 (NCI-H23): 42 µM (inactive) | GI50 (HOP-18): > 77.8 µM (inactive) | GI50 (KM12): > 89.9 µM (inactive) | GI50 (A549): > 71 µM (inactive) | GI50 (SW-620): > 92.7 µM (inactive) | GI50 (NCI-H226): > 100 µM (inactive) | GI50 (DMS-114): 28.6 µM (inactive) | GI50 (HT-29): 22.9 µM (inactive)

C=CCN1/C(=C(\C#N)c2nc3ccccc3[nH]2)Sc2c1nc[nH]c2=O
GI50 (UO-31): > 100 µM (inactive) | GI50 (CCRF-CEM): > 100 µM (inactive) | GI50 (DLD-1): > 100 µM (inactive) | GI50 (DMS-273): > 100 µM (inactive) | GI50 (SNB-78): > 100 µM (inactive) | GI50 (Malme-3M): > 100 µM (inactive) | GI50 (NCI-H23): > 100 µM (inactive) | GI50 (KM12): > 100 µM (inactive) | GI50 (A549): > 100 µM (inactive) | GI50 (SW-620): > 100 µM (inactive) | GI50 (DMS-114): > 100 µM (inactive) | GI50 (HT-29): > 100 µM (inactive)

CC(OC(C)(C)C)[C@H](NC(=O)OCC(Cl)(Cl)Cl)C(=O)O (stereo not given in full)
GI50 (UO-31): > 100 µM (inactive) | GI50 (CCRF-CEM): > 100 µM (inactive) | GI50 (DLD-1): > 100 µM (inactive) | GI50 (DMS-273): > 100 µM (inactive) | GI50 (SNB-78): > 100 µM (inactive) | GI50 (Malme-3M): > 100 µM (inactive) | GI50 (NCI-H23): > 100 µM (inactive) | GI50 (KM12): > 100 µM (inactive) | GI50 (A549): > 100 µM (inactive) | GI50 (SW-620): > 100 µM (inactive) | GI50 (DMS-114): > 100 µM (inactive) | GI50 (HT-29): > 100 µM (inactive)

CC(=O)OCC1OC(OCCCCCCO)C(OC(C)=O)C(OC(C)=O)C1OC(C)=O (stereo not given)
GI50 (UO-31): > 100 µM (inactive) | GI50 (MCF7): > 100 µM (inactive) | GI50 (CCRF-CEM): > 100 µM (inactive) | GI50 (Hs-578T): > 100 µM (inactive) | GI50 (MDA-N): > 100 µM (inactive) | GI50 (NCI-H23): > 100 µM (inactive) | GI50 (KM12): > 100 µM (inactive) | GI50 (A549): > 100 µM (inactive) | GI50 (MDA-MB-435): > 100 µM (inactive) | GI50 (SW-620): > 100 µM (inactive) | GI50 (NCI-H226): > 100 µM (inactive) | GI50 (HT-29): > 100 µM (inactive)

Cc1ccc(-c2cc(-c3ccco3)c(C#N)c(=O)n2C2OC(CO)C(O)C(O)C2O)cc1 (stereo not given)
GI50 (UO-31): 59.6 µM (inactive) | GI50 (CCRF-CEM): 66.2 µM (inactive) | GI50 (DLD-1): 67.6 µM (inactive) | GI50 (DMS-273): 50.7 µM (inactive) | GI50 (SNB-78): 65.5 µM (inactive) | GI50 (Malme-3M): 41 µM (inactive) | GI50 (NCI-H23): 37.1 µM (inactive) | GI50 (HOP-18): > 100 µM (inactive) | GI50 (KM12): 84.5 µM (inactive) | GI50 (SW-620): 93.8 µM (inactive) | GI50 (NCI-H226): 58.6 µM (inactive) | GI50 (DMS-114): > 100 µM (inactive) | GI50 (HT-29): > 100 µM (inactive)

O=C(CC(C(=O)c1cccs1)c1ccc2c(c1)OCO2)c1ccc(Br)cc1 (stereo not given)
GI50 (UO-31): 14.9 µM (inactive) | GI50 (MCF7): > 100 µM (inactive) | GI50 (CCRF-CEM): > 100 µM (inactive) | GI50 (Malme-3M): > 100 µM (inactive) | GI50 (MDA-N): > 100 µM (inactive) | GI50 (NCI-H23): > 100 µM (inactive) | GI50 (KM12): > 100 µM (inactive) | GI50 (DU-145): > 100 µM (inactive) | GI50 (A549): > 100 µM (inactive) | GI50 (MDA-MB-435): > 100 µM (inactive) | GI50 (SW-620): > 100 µM (inactive) | GI50 (NCI-H226): > 100 µM (inactive) | GI50 (786-0): > 100 µM (inactive)

Clc1cc2c(c(CSC3=NCN(CC4CC4)CN3)c1)OCOC2
GI50 (UO-31): 12.7 µM (inactive) | GI50 (MCF7): 20.8 µM (inactive) | GI50 (CCRF-CEM): 5.35 µM (inactive) | GI50 (Malme-3M): 18.2 µM (inactive) | GI50 (Hs-578T): 33.7 µM (inactive) | GI50 (MDA-N): 16.3 µM (inactive) | GI50 (NCI-H23): 17.1 µM (inactive) | GI50 (KM12): 30.8 µM (inactive) | GI50 (DU-145): 26.1 µM (inactive) | GI50 (A549): 22.8 µM (inactive) | GI50 (MDA-MB-435): 21.8 µM (inactive) | GI50 (SW-620): 20.5 µM (inactive) | GI50 (NCI-H226): 20.7 µM (inactive) | GI50 (786-0): 19.8 µM (inactive) | GI50 (HT-29): 20.3 µM (inactive)

COc1ccc2c(c1)CCN=C2Cc1cc(OC)c(OC)cc1CCCl
GI50 (UO-31): 29.2 µM (inactive) | GI50 (MCF7): 52.2 µM (inactive) | GI50 (CCRF-CEM): > 100 µM (inactive) | GI50 (Malme-3M): 27.4 µM (inactive) | GI50 (Hs-578T): 22.1 µM (inactive) | GI50 (MDA-N): 53.8 µM (inactive) | GI50 (NCI-H23): 52 µM (inactive) | GI50 (KM12): 33.3 µM (inactive) | GI50 (DU-145): > 100 µM (inactive) | GI50 (A549): 96.4 µM (inactive) | GI50 (MDA-MB-435): 52 µM (inactive) | GI50 (SW-620): > 100 µM (inactive) | GI50 (NCI-H226): 64.6 µM (inactive) | GI50 (HT-29): 26.9 µM (inactive)

N#CC1(C#N)C(=O)c2ccncc2C1=O
GI50 (UO-31): > 100 µM (inactive) | GI50 (MCF7): > 100 µM (inactive) | GI50 (CCRF-CEM): > 100 µM (inactive) | GI50 (Malme-3M): > 100 µM (inactive) | GI50 (Hs-578T): > 100 µM (inactive) | GI50 (MDA-N): > 100 µM (inactive) | GI50 (NCI-H23): > 100 µM (inactive) | GI50 (KM12): > 100 µM (inactive) | GI50 (DU-145): > 100 µM (inactive) | GI50 (A549): > 100 µM (inactive) | GI50 (MDA-MB-435): > 100 µM (inactive) | GI50 (SW-620): > 100 µM (inactive) | GI50 (NCI-H226): > 100 µM (inactive) | GI50 (HT-29): > 100 µM (inactive)

CN1NC(c2ccccc2)=C(C#N)C(=O)CC1c1ccc(Br)cc1 (stereo not given)
GI50 (DLD-1): 26.1 µM (inactive) | GI50 (SNB-78): 48.8 µM (inactive) | GI50 (Malme-3M): 23.3 µM (inactive) | GI50 (NCI-H23): 56.4 µM (inactive) | GI50 (HOP-18): 17.9 µM (inactive) | GI50 (KM12): 25.2 µM (inactive) | GI50 (A549): 32.2 µM (inactive) | GI50 (SW-620): 25.6 µM (inactive) | GI50 (NCI-H226): 0.123 µM (active) | GI50 (HT-29): 28.9 µM (inactive)
